{"source": "paper PMC11078746", "about": "(Nature, 2024)", "key": {"[1]": {"experiment": "Mouse body weight, SW48 xenograft study with HRO761", "format": "in vivo", "design": "Body weight change, individual animals / Body weight change, group mean: unit not given here", "settings": "for Body weight change, group mean / Body weight change, individual animals: SW48 xenograft-bearing mice", "method": "All animal studies were conducted in accordance with ethics and procedures covered by permit BS-2275 and BS-1975 issued by the Kantonales Veterinäramt Basel-Stadt and in strict adherence to guidelines of the Eidgenössisches Tierschutzgesetz and the Eidgenössische Tierschutzverordnung, Switzerland. All animal studies were approved by the internal ethics committee. All animals had access to food and water ad libitum and were identified with transponders. They were housed in a specific-pathogen-free facility in IVC racks under a 12 h–12 h light–dark cycle. To establish cell-line-derived xenograft models, 6–7-week-old female athymic nude (Crl:NU(NCr)-Foxn1^nu) or SCID-BEIGE (CB17.Cg-PrkdcscidLystbg-J/Crl) mice from Charles River were engrafted subcutaneously with 5 million tumour cells in HBSS (H6648, Sigma-Aldrich). For SNU-407, Lovo, IM95, RL95.2, Ishikawa and IGROV-1, the cells were concentrated in 50% Matrigel (354234, Corning). Patient-derived xenografts were induced and expanded by transplantation as previously described. […] For the efficacy experiment, mice were randomized into groups (n = 5–6) for a mean tumour size of 100–150 mm^3. […] Blood samples were collected on day 7 and 91. […] Tumour responses are reported with the measures of tumour volumes from the treatment start. […] Animals were randomized (n = 3) and tumour samples were collected at 0, 1, 4, 8 and 24 h on the first day and then collected 4 h after the last treatment on day 3, 8, 10, 14 (including a 24 h timepoint), 17 and 21. Tumours were excised, weighed, either frozen in liquid nitrogen and cryogenic dry pulverized with the CryoPrep system (model CP-02, Covaris) or processed to FFPE after fixation. […] On day 12, blood samples were collected for PK analysis. On the last day (3 h after the last treatment), tumours were excised, weighed, frozen in liquid nitrogen and cryogenic dry pulverized for PD analysis."}, "TOV21G": {"test_system": "TOV21G", "experiment": "4 day proliferation assay (CellTiter-Glo)", "settings": "Homo sapiens, 96 h, read-out: 4 day assay GI50"}, "HEC108": {"test_system": "HEC108", "experiment": "4 day proliferation assay (CellTiter-Glo)", "settings": "Homo sapiens, 96 h, read-out: 4 day assay GI50"}, "SNUC4": {"test_system": "SNUC4", "experiment": "CFA 10-14 day clonogenic assay", "format": "cell-based", "settings": "Homo sapiens, SNU-C4"}, "[2]": {"settings": "HRO761 120mg/kg, day 0 post 1st dose"}}, "note": "“And” between values parts separate entries of the source, which are not always exact repeats. Equal values may be shown once.", "data": [{"smiles": "CCc1c(N2CCN(C(=O)c3ncnc(C)c3O)CC2)c(=O)n2nc(C3=CCOCC3)nc2n1CC(=O)Nc1ccc(C(F)(F)F)cc1Cl", "note": "[HRO761]", "values": [{"measurement": "Mean DBW", "setting": "[1]; HRO761 60mg/kg, day 31 post 1st dose", "result": 5.38, "unit": "%"}, {"measurement": "Mean DBW", "setting": "[1]; HRO761 60mg/kg, day 35 post 1st dose", "result": 4.36, "unit": "%"}, {"measurement": "Mean DBW", "setting": "[1]; HRO761 60mg/kg, day 38 post 1st dose", "result": 2.35, "unit": "%"}, {"measurement": "Mean DBW", "setting": "[1]; HRO761 60mg/kg, day 42 post 1st dose", "result": 3.45, "unit": "%"}, {"measurement": "Mean DBW", "setting": "[1]; HRO761 60mg/kg, day 45 post 1st dose", "result": 2.45, "unit": "%"}, {"measurement": "Mean DBW", "setting": "[1]; HRO761 60mg/kg, day 49 post 1st dose", "result": 3.51, "unit": "%"}, {"measurement": "Mean DBW", "setting": "[1]; HRO761 60mg/kg, day 52 post 1st dose", "result": 2.35, "unit": "%"}, {"measurement": "Mean DBW", "setting": "[1]; HRO761 60mg/kg, day 56 post 1st dose", "result": 2.93, "unit": "%"}, {"measurement": "Mean DBW", "setting": "[1]; HRO761 60mg/kg, day 59 post 1st dose", "result": 4.86, "unit": "%"}, {"measurement": "Mean DBW", "setting": "[1]; HRO761 60mg/kg, day 63 post 1st dose", "result": 4.98, "unit": "%"}, {"measurement": "Mean DBW", "setting": "[1]; HRO761 60mg/kg, day 66 post 1st dose", "result": 5.96, "unit": "%"}, {"measurement": "Mean DBW", "setting": "[1]; HRO761 60mg/kg, day 70 post 1st dose", "result": 5.36, "unit": "%"}, {"measurement": "Mean DBW", "setting": "[1]; HRO761 60mg/kg, day 73 post 1st dose", "result": 5.45, "unit": "%"}, {"measurement": "Mean DBW", "setting": "[1]; HRO761 60mg/kg, day 76 post 1st dose", "result": 8.05, "unit": "%"}, {"measurement": "Mean DBW", "setting": "[1]; HRO761 60mg/kg, day 79 post 1st dose", "result": 6.02, "unit": "%"}, {"measurement": "Mean DBW", "setting": "[1]; HRO761 60mg/kg, day 83 post 1st dose", "result": 6.63, "unit": "%"}, {"measurement": "Mean DBW", "setting": "[1]; HRO761 60mg/kg, day 86 post 1st dose", "result": 7.71, "unit": "%"}, {"measurement": "Delta BW change, individual mouse", "setting": "[1]; [2]", "result": 0, "unit": "%"}, {"measurement": "Mean DBW", "setting": "[1]; [2]", "result": 0.00, "unit": "%"}, {"measurement": "Mean DBW", "setting": "[1]; HRO761 120mg/kg, day 3 post 1st dose", "result": -2.05, "unit": "%"}, {"measurement": "Delta BW change, individual mouse", "setting": "[1]; HRO761 120mg/kg, day 3 post 1st dose, 120 mg/kg", "result": "-1.24% and 0% and -5.24% and -5.96% and 2.18%"}, {"measurement": "Mean DBW", "setting": "[1]; HRO761 120mg/kg, day 7 post 1st dose", "result": 0.64, "unit": "%"}, {"measurement": "Delta BW change, individual mouse", "setting": "[1]; HRO761 120mg/kg, day 7 post 1st dose, 120 mg/kg", "result": "0% (2×) and 3.8% and -3.23% and 2.62%"}, {"measurement": "Mean DBW", "setting": "[1]; HRO761 120mg/kg, day 10 post 1st dose", "result": 0.034, "unit": "%"}, {"measurement": "Delta BW change, individual mouse", "setting": "[1]; HRO761 120mg/kg, day 10 post 1st dose, 120 mg/kg", "result": "2.07% and 3.8% and -2.42% and -4.59% and 1.31%"}, {"measurement": "Mean DBW", "setting": "[1]; HRO761 120mg/kg, day 14 post 1st dose", "result": 1.43, "unit": "%"}, {"measurement": "Delta BW change, individual mouse", "setting": "[1]; HRO761 120mg/kg, day 14 post 1st dose, 120 mg/kg", "result": "4.15% and 4.56% and -2.82% and -0.92% and 2.18%"}, {"measurement": "Mean DBW", "setting": "[1]; HRO761 120mg/kg, day 17 post 1st dose", "result": 1.14, "unit": "%"}, {"measurement": "Mean DBW", "setting": "[1]; HRO761 120mg/kg, day 21 post 1st dose", "result": 5.29, "unit": "%"}, {"measurement": "Mean DBW", "setting": "[1]; HRO761 120mg/kg, day 24 post 1st dose", "result": 6.66, "unit": "%"}, {"measurement": "Mean DBW", "setting": "[1]; HRO761 120mg/kg, day 28 post 1st dose", "result": 5.89, "unit": "%"}, {"measurement": "Mean DBW", "setting": "[1]; HRO761 120mg/kg, day 31 post 1st dose", "result": 6.52, "unit": "%"}, {"measurement": "Mean DBW", "setting": "[1]; HRO761 120mg/kg, day 35 post 1st dose", "result": 7.34, "unit": "%"}, {"measurement": "Mean DBW", "setting": "[1]; HRO761 120mg/kg, day 38 post 1st dose", "result": 4.89, "unit": "%"}, {"measurement": "Mean DBW", "setting": "[1]; HRO761 120mg/kg, day 42 post 1st dose", "result": 6.61, "unit": "%"}, {"measurement": "Mean DBW", "setting": "[1]; HRO761 120mg/kg, day 45 post 1st dose", "result": 7.02, "unit": "%"}, {"measurement": "Mean DBW", "setting": "[1]; HRO761 120mg/kg, day 49 post 1st dose", "result": 8.54, "unit": "%"}, {"measurement": "Mean DBW", "setting": "[1]; HRO761 120mg/kg, day 52 post 1st dose", "result": 5.69, "unit": "%"}, {"measurement": "Mean DBW", "setting": "[1]; HRO761 120mg/kg, day 56 post 1st dose", "result": 7.31, "unit": "%"}, {"measurement": "Mean DBW", "setting": "[1]; HRO761 120mg/kg, day 59 post 1st dose", "result": 8.08, "unit": "%"}, {"measurement": "Mean DBW", "setting": "[1]; HRO761 120mg/kg, day 63 post 1st dose", "result": 9.90, "unit": "%"}, {"measurement": "Mean DBW", "setting": "[1]; HRO761 120mg/kg, day 66 post 1st dose", "result": 9.60, "unit": "%"}, {"measurement": "Mean DBW", "setting": "[1]; HRO761 120mg/kg, day 70 post 1st dose", "result": 9.57, "unit": "%"}, {"measurement": "Mean DBW", "setting": "[1]; HRO761 120mg/kg, day 73 post 1st dose", "result": 7.95, "unit": "%"}, {"measurement": "Mean DBW", "setting": "[1]; HRO761 120mg/kg, day 76 post 1st dose", "result": 11.43, "unit": "%"}, {"measurement": "Mean DBW", "setting": "[1]; HRO761 120mg/kg, day 79 post 1st dose", "result": 9.25, "unit": "%"}, {"measurement": "Mean DBW", "setting": "[1]; HRO761 120mg/kg, day 83 post 1st dose", "result": 10.23, "unit": "%"}, {"measurement": "Mean DBW", "setting": "[1]; HRO761 120mg/kg, day 86 post 1st dose", "result": 9.35, "unit": "%"}, {"measurement": "Body weight change, group mean", "setting": "[1]; HRO761 40mg/kg, day 90 post 1st dose", "result": 13.42}, {"measurement": "Body weight change, individual animals", "setting": "[1]; HRO761 40mg/kg, day 90 post 1st dose, 40 mg/kg", "result": "12.73 and 18.18 and 7.58 and 10.23 and 18.39"}, {"measurement": "Body weight change, group mean", "setting": "[1]; HRO761 40mg/kg, day 92 post 1st dose", "result": 10.60}, {"measurement": "Body weight change, individual animals", "setting": "[1]; HRO761 40mg/kg, day 92 post 1st dose, 40 mg/kg", "result": "10.45 and 10.82 and 5.05 and 12.5 and 14.18"}, {"measurement": "Body weight change, group mean", "setting": "[1]; HRO761 60mg/kg, day 90 post 1st dose", "result": 7.89}, {"measurement": "Body weight change, individual animals", "setting": "[1]; HRO761 60mg/kg, day 90 post 1st dose, 60 mg/kg", "result": "7.66 and 9.39 and 10.88 and 1.67 and 9.83"}, {"measurement": "Body weight change, group mean", "setting": "[1]; HRO761 60mg/kg, day 92 post 1st dose", "result": 5.46}, {"measurement": "Body weight change, individual animals", "setting": "[1]; HRO761 60mg/kg, day 92 post 1st dose, 60 mg/kg", "result": "5.11 and 6.53 and 6.69 and 0.42 and 8.55"}, {"measurement": "Body weight change, group mean", "setting": "[1]; HRO761 120mg/kg, day 90 post 1st dose", "result": 10.59}, {"measurement": "Body weight change, individual animals", "setting": "[1]; HRO761 120mg/kg, day 90 post 1st dose, 120 mg/kg", "result": "9.96 and 14.07 and 7.66 and 5.96 and 15.28"}, {"measurement": "Body weight change, group mean", "setting": "[1]; HRO761 120mg/kg, day 92 post 1st dose", "result": 7.50}, {"measurement": "Body weight change, individual animals", "setting": "[1]; HRO761 120mg/kg, day 92 post 1st dose, 120 mg/kg", "result": "5.81 and 9.13 and 4.84 and 5.5 and 12.23"}, {"measurement": "toxicity inferred from animal weight", "setting": "[1]; doses up to 120 mg per kg", "result": "did not cause toxicity"}, {"measurement": "GI50", "setting": "TOV21G", "result": "≥ 10000", "unit": "nM"}, {"measurement": "GI50", "setting": "HEC108", "result": 1460, "unit": "nM"}, {"measurement": "GI50", "setting": "SNUC4", "result": 35, "unit": "nM"}]}]}
